Test results published in ChEMBL document CHEMBL3870356, “Investigation of a Bicyclo[1.1.1]pentane as a Phenyl Replacement within an LpPLA2 Inhibitor” (ACS Med Chem Lett, 2017).
Values after ≈ are worked out from the molar mass of the structure shown.

Columns and labels:
[1] = Kinetic solubility of the compound by chemiluminescent nitrogen detection assay
[2] = Clearance in human liver microsomes; format: ADME
[3] = Lipophilicity, logD of the compound at pH 7.4 by chromatography; format: physicochemical; conditions: buffer
[4] = Thermodynamic solubility of the compound in fasted state simulated intestinal fluid; format: ADME; conditions: read-out: Therm_solubility
[5] = Permeability of the compound at pH 7.4 by PAMPA; format: ADME; conditions: read-out: permeability
[6] = molecular target: T1, Platelet-activating factor acetylhydrolase (Homo sapiens, UniProt Q13093); test: Inhibition of human recombinant LpPLA2
T1 sequence (Q13093 whole entry): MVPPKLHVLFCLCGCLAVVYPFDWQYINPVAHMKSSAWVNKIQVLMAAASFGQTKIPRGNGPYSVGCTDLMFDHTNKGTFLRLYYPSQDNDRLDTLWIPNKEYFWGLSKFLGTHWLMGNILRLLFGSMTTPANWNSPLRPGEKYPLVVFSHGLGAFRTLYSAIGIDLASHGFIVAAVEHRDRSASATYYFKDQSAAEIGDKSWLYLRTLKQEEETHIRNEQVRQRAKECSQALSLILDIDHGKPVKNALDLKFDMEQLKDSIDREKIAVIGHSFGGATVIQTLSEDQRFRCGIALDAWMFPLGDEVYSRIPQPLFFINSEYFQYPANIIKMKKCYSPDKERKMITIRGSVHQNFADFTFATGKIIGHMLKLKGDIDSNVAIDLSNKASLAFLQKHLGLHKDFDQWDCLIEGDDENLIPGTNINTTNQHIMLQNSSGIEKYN

| Compound | solubility kinetic [1] | CLH [2] | chromatographic logD [3] | solubility thermodynamic [4] | Papp [5] | IC50 [6] |
| --- | --- | --- | --- | --- | --- | --- |
| COCCN1CCC(N(CC23CC(c4ccc(C(F)(F)F)cc4)(C2)C3)C(=O)Cn2c(SCc3cccc(F)c3F)cc(=O)c3ccccc32)CC1 | 32 µM (≈ 23.2 µg/mL) | 0.76 mL/min/g | 7.06 | 635 µg/mL (≈ 875 µM) |  |  |
| CCN(CC)CCN(CC12CC(c3ccc(C(F)(F)F)cc3)(C1)C2)C(=O)Cn1c(SCc2ccc(F)cc2)nc(=O)c2c1CCC2 | 74 µM (≈ 48.6 µg/mL) | 1.22 mL/min/g | 7 | > 1000 µg/mL | 70.5 ×10⁻⁶ cm/s | 0.398 nM |
| CCN(CC)CCN(Cc1ccc(-c2ccc(C(F)(F)F)cc2)cc1)C(=O)Cn1c(SCc2ccc(F)cc2)nc(=O)c2c1CCC2 [DARAPLADIB] | 8 µM (≈ 5.33 µg/mL) |  |  | 399 µg/mL (≈ 598 µM) |  |  |
| COCCN1CCC(N(Cc2ccc(-c3ccc(C(F)(F)F)cc3)cc2)C(=O)Cn2c(SCc3cccc(F)c3F)cc(=O)c3ccccc32)CC1 [RILAPLADIB] | < 1 µM |  | 6.74 | 203 µg/mL (≈ 276 µM) |  |  |
